# Data as given in patent publication US8771665B2 (Cocrystal Discovery, Inc., priority 2010, dated 2014).
# Structures can show the parent of a compound that is named as a salt.
# Target: T1, HCV1b NS5B polymerase delta 21 (Hepatitis C virus genotype 1b, UniProt P26663)
# T1 construct: purified HCV1b NS5B polymerase delta 21
# Assay: RNA-Dependent RNA HCV NS5B (Polymerase) Assay and IC50 Determination
# Assay type: biochemical
# Outline: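 Purified NS5B Δ21 (0.6 μg) with polyA:U16 template, 10 μM UTP plus α-32P UTP in Tris-HCl pH 7.5, 5 mM MgCl2, 0.5% Triton X-100, 60 min at 23°C with varied compound concentrations. Radiolabelled RNA captured on filters, quantified by phosphorimaging; IC50 from triplicate assays.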
# T1 sequence (P26663 2420-2989): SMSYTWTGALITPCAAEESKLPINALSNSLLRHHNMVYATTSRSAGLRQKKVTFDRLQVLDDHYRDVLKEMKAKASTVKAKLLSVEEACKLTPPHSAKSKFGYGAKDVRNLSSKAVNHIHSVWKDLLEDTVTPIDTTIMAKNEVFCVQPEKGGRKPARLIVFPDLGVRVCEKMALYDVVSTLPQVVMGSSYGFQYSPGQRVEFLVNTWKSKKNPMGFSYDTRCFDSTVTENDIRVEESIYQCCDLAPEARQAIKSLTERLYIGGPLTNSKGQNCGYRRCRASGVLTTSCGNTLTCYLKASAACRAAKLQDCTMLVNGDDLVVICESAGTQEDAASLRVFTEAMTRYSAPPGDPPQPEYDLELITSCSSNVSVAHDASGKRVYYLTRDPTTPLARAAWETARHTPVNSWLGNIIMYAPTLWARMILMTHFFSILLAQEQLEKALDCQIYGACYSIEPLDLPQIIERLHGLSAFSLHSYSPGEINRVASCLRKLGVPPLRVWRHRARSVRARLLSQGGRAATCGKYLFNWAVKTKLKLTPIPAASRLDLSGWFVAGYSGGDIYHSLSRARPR
row,SMILES,IC50
1,"CC1CCC(C2=C(c3cc(-c4ccc(-c5cc6nccc(N)n6n5)cc4)sc3C(=O)O)CCN(C)C2)CC1 (stereo not shown) [Example 132, 5-[4-(7-Amino-pyrazolo[1,5-a]pyrimidin-2-yl)-phenyl]-3-[1-methyl-5-(4-methyl-cyclohexyl)-1,2,3,6-tetrahydro-pyridin-4-yl]-thiophene-2-carboxylic acid, hydrochloride salt]",< 3 µM
2,"CC1CCC(C2=C(c3cc(C#CC(C)(C)C)sc3C(=O)O)CCN(Cc3ccncc3)C2)CC1 (stereo not shown) [Example 133, 5-(3,3-Dimethyl-but-1-ynyl)-3-[5-(4-methyl-cyclohexyl)-1-pyridin-4-ylmethyl-1,2,3,6-tetrahydro-pyridin-4-yl]-thiophene-2-carboxylic acid]",3 to 10 µM
3,"CC1CCC(C2=C(c3cc(C#CC4CC4)sc3C(=O)O)CCN(Cc3ccccn3)C2)CC1 (stereo not shown) [Example 134, 5-Cyclopropylethynyl-3-[5-(4-methyl-cyclohexyl)-1-pyridin-2-ylmethyl-1,2,3,6-tetrahydro-pyridin-4-yl]-thiophene-2-carboxylic acid]",< 3 µM
4,"CC1CCC(C2=C(c3cc(-c4ccc(C5=CC6N=CC=CC6O5)cc4)sc3C(=O)O)CCN(C)C2)CC1 (stereo not shown) [Example 135, 5-[4-(3a,7a-Dihydro-furo[3,2-b]pyridin-2-yl)-phenyl]-3-[1-methyl-5-(4-methyl-cyclohexyl)-1,2,3,6-tetrahydro-pyridin-4-yl]-thiophene-2-carboxylic acid]",< 3 µM
5,"CC1CCC(C2=C(c3cc(C#CC(C)(C)C)sc3C(=O)O)CCN(Cc3c(C(F)(F)F)nn(C)c3Cl)C2)CC1 (stereo not shown) [Example 136, 3-[1-(5-Chloro-1-methyl-3-trifluoromethyl-1H-pyrazol-4-ylmethyl)-5-(4-methyl-cyclohexyl)-1,2,3,6-tetrahydro-pyridin-4-yl]-5-(3,3-dimethyl-but-1-ynyl)-thiophene-2-carboxylic acid]",> 10 µM
6,"COCCN1CCC(C2CCC(C)CC2)=C(c2cc(C#CC(C)(C)C)sc2C(=O)O)C1 (stereo not shown) [Example 137, 5-(3,3-Dimethyl-but-1-ynyl)-3-[1-(2-methoxy-ethyl)-4-(4-methyl-cyclohexyl)-1,2,5,6-tetrahydro-pyridin-3-yl]-thiophene-2-carboxylic acid]",> 10 µM
7,"CC1CCC(C2=C(c3cc(C#CC4CC4)sc3C(=O)O)CCN(CCO)C2)CC1 (stereo not shown) [Example 138, 5-Cyclopropylethynyl-3-[1-(2-hydroxy-ethyl)-5-(4-methyl-cyclohexyl)-1,2,3,6-tetrahydro-pyridin-4-yl]-thiophene-2-carboxylic acid]",< 3 µM
8,"CC1CCC(C2=C(c3cc(-c4ccc(-c5nc6cccnc6n5C)cc4)sc3C(=O)O)CCN(C)C2)CC1 (stereo not shown) [Example 139, 5-[4-(3-Methyl-3H-imidazo[4,5-b]pyridin-2-yl)-phenyl]-3-[1-methyl-5-(4-methyl-cyclohexyl)-1,2,3,6-tetrahydro-pyridin-4-yl]-thiophene-2-carboxylic acid]",> 10 µM
9,"CC1CCC(C2=C(c3cc(-c4ccc(-c5nc6cccnc6[nH]5)cc4)sc3C(=O)O)CCN(C)C2)CC1 (stereo not shown) [Example 140, 5-[4-(3H-Imidazol-[4,5-b]pyridin-2-yl)-phenyl]-3-[1-methyl-5-(4-methyl-cyclohexyl)-1,2,3,6-tetrahydro-pyridin-4-yl]-thiophene-2-carboxylic acid]",3 to 10 µM
10,"CC1CCC(C2=C(c3cc(-c4ccc(-c5cc6ncccn6n5)cc4)sc3C(=O)O)CCN(Cc3ccccn3)C2)CC1 (stereo not shown) [Example 141, 3-[5-(4-Methyl-cyclohexyl)-1-pyridin-2-ylmethyl-1,2,3,6-tetrahydro-pyridin-4-yl]-5-(4-pyrazolo[1,5-a]pyrimidin-2-yl-phenyl)-thiophene-2-carboxylic acid]",3 to 10 µM
11,"Cc1nn(C)cc1CN1CCC(c2cc(C#CC(C)(C)C)sc2C(=O)O)=C(C2CCC(C)CC2)C1 (stereo not shown) [Example 142, 5-(3,3-Dimethyl-but-1-ynyl)-3-[1-(1,3-dimethyl-1H-pyrazol-4-ylmethyl)-5-(4-methyl-cyclohexyl)-1,2,3,6-tetrahydro-pyridin-4-yl]-thiophene-2-carboxylic acid]",< 3 µM
12,"CC1CCC(C2=C(c3cc(-c4ccccc4)sc3C(=O)O)CCN(Cc3ccc4ccccc4n3)C2)CC1 (stereo not shown) [Example 143, 3-[5-(4-Methyl-cyclohexyl)-1-quinolin-2-ylmethyl-1,2,3,6-tetrahydro-pyridin-4-yl]-5-phenyl-thiophene-2-carboxylic acid]",> 10 µM
13,"CC1CCC(C2=C(c3cc(-c4ccccc4)sc3C(=O)O)CCN(Cc3ccnc(Br)c3)C2)CC1 (stereo not shown) [Example 144, 3-[1-(2-Bromo-pyridin-4-ylmethyl)-5-(4-methyl-cyclohexyl)-1,2,3,6-tetrahydro-pyridin-4-yl]-5-phenyl-thiophene-2-carboxylic acid]",3 to 10 µM
14,"CC1CCC(C2=C(c3cc(-c4ccccc4)sc3C(=O)O)CCN(Cc3ccnc(-c4cccs4)c3)C2)CC1 (stereo not shown) [Example 145, 3-[5-(4-Methyl-cyclohexyl)-1-(2-thiophen-2-yl-pyridin-4-ylmethyl)-1,2,3,6-tetrahydro-pyridin-4-yl]-5-phenyl-thiophene-2-carboxylic acid]",> 10 µM
15,"CC1CCC(C2=C(c3cc(-c4ccccc4)sc3C(=O)O)CCN(Cc3c(Cl)cncc3Cl)C2)CC1 (stereo not shown) [Example 146, 3-[1-(3,5-Dichloro-pyridin-4-ylmethyl)-5-(4-methyl-cyclohexyl)-1,2,3,6-tetrahydro-pyridin-4-yl]-5-phenyl-thiophene-2-carboxylic acid]",> 10 µM
16,"CC1CCC(C2=C(c3cc(-c4ccccc4)sc3C(=O)O)CCN(Cc3ccnc(-c4ccc(F)cc4)c3)C2)CC1 (stereo not shown) [Example 147, 3-[1-[2-(4-Fluoro-phenyl)-pyridin-4-ylmethyl]-5-(4-methyl-cyclohexyl)-1,2,3,6-tetrahydro-pyridin-4-yl]-5-phenyl-thiophene-2-carboxylic acid]",> 10 µM
17,"CC1CCC(C2=C(c3cc(-c4ccccc4)sc3C(=O)O)CCN(Cc3ccnc4ccccc34)C2)CC1 (stereo not shown) [Example 148, 3-[5-(4-Methyl-cyclohexyl)-1-quinolin-4-ylmethyl-1,2,3,6-tetrahydro-Pyridin-4-yl]-5-phenyl-thiophene-2-carboxylic acid]",> 10 µM
18,"CC1CCC(C2=C(c3cc(-c4ccccc4)sc3C(=O)O)CCN(Cc3ccc(Br)cn3)C2)CC1 (stereo not shown) [Example 149, 3-[1-(5-Bromo-pyridin-2-ylmethyl)-5-(4-methyl-cyclohexyl)-1,2,3,6-tetrahydro-pyridin-4-yl]-5-phenyl-thiophene-2-carboxylic acid]",3 to 10 µM
19,"CCc1cc(CC)n2nc(CN3CCC(c4cc(-c5ccccc5)sc4C(=O)O)=C(C4CCC(C)CC4)C3)nc2n1 (stereo not shown) [Example 150, 3-[1-(5,7-Diethyl-[1,2,4]triazolo[1,5-a]pyrimidin-2-ylmethyl)-5-(4-methyl-cyclohexyl)-1,2,3,6-tetrahydro-pyridin-4-yl]-5-phenyl-thiophene-2-carboxylic acid]",< 3 µM
20,"CC1CCC(C2=C(c3cc(-c4ccccc4)sc3C(=O)O)CCN(Cc3nc4nc(C(C)C)cc(C(C)C)n4n3)C2)CC1 (stereo not shown) [Example 151, 3-[1-(5,7-Diisopropyl-[1,2,4]triazolo[1,5-a]pyrimidin-2-ylmethyl)-5-(4-methyl-cyclohexyl)-1,2,3,6-tetrahydro-pyridin-4-yl]-5-phenyl-thiophene-2-carboxylic acid]",3 to 10 µM
21,"CC1CCC(C2=C(c3cc(-c4ccccc4)sc3C(=O)O)CCN(C(=O)Cn3cnc4ccccc43)C2)CC1 (stereo not shown) [Example 152, 3-[1-(2-Benzoimidazol-1-yl-acetyl)-5-(4-methyl-cyclohexyl)-1,2,3,6-tetrahydro-pyridin-4-yl]-5-phenyl-thiophene-2-carboxylic acid]",< 3 µM
22,"CC1CCC(C2=C(c3cc(-c4ccccc4)sc3C(=O)O)CCN(C(=O)Cc3nc4ccccn4n3)C2)CC1 (stereo not shown) [Example 153, 3-[5-(4-Methyl-cyclohexyl)-1-(2-[1,2,4]triazolo[1,5-a]pyridin-2-yl-acetyl)-1,2,3,6-tetrahydro-pyridin-4-yl]-5-phenyl-thiophene-2-carboxylic acid]",3 to 10 µM
23,"CC1CCC(C2=C(c3cc(-c4ccccc4)sc3C(=O)O)CCN(C(=O)c3ccc(C(F)(F)F)nc3)C2)CC1 (stereo not shown) [Example 154, 3-[5-(4-Methyl-cyclohexyl)-1-(6-trifluoromethyl-pyridine-3-carbonyl)-1,2,3,6-tetrahydro-pyridin-4-yl]-5-phenyl-thiophene-2-carboxylic acid]",< 3 µM
24,"CC1CCC(C2=C(c3cc(-c4ccccc4)sc3C(=O)O)CCN(C(=O)c3nccnc3N)C2)CC1 (stereo not shown) [Example 155, 3-[1-(3-Amino-pyrazine-2-carbonyl)-5-(4-methyl-cyclohexyl)-1,2,3,6-tetrahydro-pyridin-4-yl]-5-phenyl-thiophene-2-carboxylic acid]",> 10 µM
25,"CC1CCC(C2=C(c3cc(-c4ccccc4)sc3C(=O)O)CCN(C(=O)c3cncn3C)C2)CC1 (stereo not shown) [Example 156, 3-[5-(4-Methyl-cyclohexyl)-1-(3-methyl-3H-imidazole-4-carbonyl)-1,2,3,6-tetrahydro-pyridin-4-yl]-5-phenyl-thiophene-2-carboxylic acid]",> 10 µM
26,"CC1CCC(C2=C(c3cc(-c4ccccc4)sc3C(=O)O)CCN(Cc3cncnc3)C2)CC1 (stereo not shown) [Example 157, 3-[5-(4-Methyl-cyclohexyl)-1-pyrimidin-5-ylmethyl-1,2,3,6-tetrahydro-pyridin-4-yl]-5-phenyl-thiophene-2-carboxylic acid]",> 10 µM
27,"CC1CCC(C2=C(c3cc(-c4ccc(/C=C/c5cscn5)cc4)sc3C(=O)O)CCN(C)C2)CC1 (stereo not shown) [Example 158, 3-[1-Methyl-5-(4-methyl-cyclohexyl)-1,2,3,6-tetrahydro-pyridin-4-yl]-5-[4-(2-thiazol-4-yl-vinyl)-phenyl]-thiophene-2-carboxylic acid]",> 10 µM
28,"CC1CCC(C2=C(c3cc(-c4ccc(NC(=O)c5cscn5)cc4)sc3C(=O)O)CCNC2)CC1 (stereo not shown) [Example 159, 3-[5-(4-Methyl-cyclohexyl)-1,2,3,6-tetrahydro-pyridin-4-yl]-5-{4-[(thiazole-4-carbonyl)-amino]-phenyl}-thiophene-2-carboxylic acid]",< 3 µM
